The values below come from patent US20060122195A1, “Sulphonamide compounds that modulate chemokine receptor activity (ccr4)” (priority 2003, published 2006).

For orientation: melting point means the temperature of the solid-liquid transition. By IC50 is commonly meant the concentration that inhibits the measured activity by half.

The target of series [1] is T1, human recombinant CCR4 receptor (Homo sapiens, UniProt P51679).
T1 construct: Brussels, Belgium; host or cells: CHO-K1
T1 sequence (P51679 1-360): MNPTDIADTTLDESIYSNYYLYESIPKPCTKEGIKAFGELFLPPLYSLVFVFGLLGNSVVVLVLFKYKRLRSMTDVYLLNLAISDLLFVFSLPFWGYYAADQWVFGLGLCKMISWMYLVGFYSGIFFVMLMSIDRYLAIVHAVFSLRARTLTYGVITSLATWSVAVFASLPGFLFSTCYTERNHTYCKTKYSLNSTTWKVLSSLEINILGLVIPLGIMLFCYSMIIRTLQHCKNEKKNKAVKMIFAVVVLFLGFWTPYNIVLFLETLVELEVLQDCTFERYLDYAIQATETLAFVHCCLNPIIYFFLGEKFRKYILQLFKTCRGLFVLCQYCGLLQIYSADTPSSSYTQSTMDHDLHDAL
In words: FMAT whole cell binding assay (FB-MDC binding to CHO-K1 cells expressing CCR4). As to conditions: inhibition of FB-MDC binding to CHO-K1 cells expressing human recombinant CCR4; two hours incubation at room temperature; mean. The protocol:
FMAT Whole Cell Binding Assay
CHO-K1 cells stably expressing the human recombinant CCR4 receptor (Euroscreen; Brussels, Belgium) were cultured in NUT.MIX.F—12(HAM) medium with glutamax-1, containing 10% (v/v) foetal bovine serum and 400 μg ml^−1 geneticin
Cells were harvested at approximately 70% confluence by treatment with a cell dissociation buffer, and seeded at 5×10^3 cells/100 μl culture medium into wells of a black Costar clear-bottomed 96-well microtitre plates. Plates were incubated overnight at 37° C. in 5% CO2 and used the following day.
Before use, the cell plates were washed twice with 100 μl Hanks balanced salt solution (HBSS). To each well was then added 65 μl of HBSS, 10 μL of 10% DMSO in HBSS±test compound and then 25 μL of 2.8 nM FB-MDC (Applied Biosystems). This fluorescent probe was prepared from a 10 μM stock in 0.08% (v/v) TFA/16% (v/v) acetonitrile, diluted into HBSS.
After two hours incubation in the dark at room temperature, the plates were analysed in an FMAT8100 reader (Applied Biosystems) to measure fluorescence that was associated with binding of FB-MDC to the cells. Compound activity was determined as an pIC50 [log(concentration of compound that results in 50% inhibition)], comparing fluorescence in control and background wells.

As to `COC(=O)[C@@H](O)CSc1cnc(NS(=O)(=O)c2cccc(Cl)c2Cl)c(OC)n1` [Example 25, 3-[[5[[(2,3-Dichlorophenyl)sulfonyl]amino]-6-methoxypyrazinyl]thio]-(2R)-2-hydroxypropanoic acid, methyl ester], the melting point was 88 to 90 °C. On the same count and under the same terms, then `COc1nc(SCC(O)c2cccnc2)cnc1NS(=O)(=O)c1cccc(Cl)c1Cl` (centres unmarked) [Example 21, 2,3-Dichloro-N-[5-[[2-hydroxy-2-(3-pyridinyl)ethyl]thio]-3-methoxypyrazinyl]benzenesulfonamide], with 188 to 190 °C. Still for that read-out and setting: for `COc1nc(SCC(O)c2ccccc2)cnc1NS(=O)(=O)c1cccc(Cl)c1Cl` (centres unmarked) [Example 20, 2,3-Dichloro-N-[5-[(2-hydroxy-2-phenylethyl)thio]-3-methoxypyrazinyl]benzenesulfonamide] the value was 141 to 143 °C. On the same count and under the same terms, then `COc1nc(SCC(O)c2ccccn2)cnc1NS(=O)(=O)c1cccc(Cl)c1Cl` (centres unmarked) [Example 24, 2,3-Dichloro-N-[5-[[2-hydroxy-2-(2-pyridinyl)ethyl]thio]-3-methoxypyrazinyl]benzenesulfonamide], with 143 to 145 °C; and `COc1nc(SCC(N)c2nccn2C)cnc1NS(=O)(=O)c1cccc(Cl)c1Cl` (centres unmarked) [Example 27, N-[5-[[2-Amino-2-(1-methyl-1H-imidazol-2-yl)ethyl]thio]-3-methoxypyrazinyl]-2,3-dichlorobenzenesulfonamide], with 187 to 189 °C. As to `COc1nc(SCC(N)c2nccs2)cnc1NS(=O)(=O)c1cccc(Cl)c1Cl` (centres unmarked) [Example 30, N-[5-[[2-Amino-2-(2-thiazolyl)ethyl]thio]-3-methoxypyrazinyl]-2,3-dichlorobenzenesulfonamide], the melting point lay within 168 to 169 °C.

Molecule `CNC(=O)[C@@H](N)CSc1nc(OC)c(NS(=O)(=O)c2cccc(Cl)c2Cl)nc1Cl` [Example 28, (2R)-2-Amino-3-[[3-chloro-5-[[(2,3-dichlorophenyl)sulfonyl]amino]-6-methoxypyrazinyl]thio]-N-methylpropanamide] showed a melting point of 150 to 155 °C. The same measure, in the same setting: for `COC(=O)[C@@H](N)CSc1cnc(NS(=O)(=O)c2cccc(Cl)c2Cl)c(OC)n1` [Example 2, S-[5[[(2,3-Dichlorophenyl)sulfonyl]amino]-6-methoxypyrazinyl]-L-cysteine, methyl ester] the value was 170 to 174 °C; for `COC(=O)[C@@H](N)CSc1nc(OC)c(NS(=O)(=O)c2cccc(Cl)c2Cl)nc1Cl` [Example 8, S-[3-Chloro-5-[[(2,3-dichlorophenyl)sulfonyl]amino]-6-methoxypyrazinyl]-L-cysteine, methyl ester], 170 to 173 °C; for `COc1nc(SCC(N)c2ccccn2)cnc1NS(=O)(=O)c1cccc(Cl)c1Cl` (centres unmarked) [Example 26, N-[5-[[2-Amino-2-(2-pyridinyl)ethyl]thio]-3-methoxypyrazinyl]-2,3-dichlorobenzenesulfonamide], 172 to 174 °C. On to `COc1nc(SCC(O)c2nccs2)cnc1NS(=O)(=O)c1cccc(Cl)c1Cl` (centres unmarked) [Example 15, 2,3-Dichloro-N-[5-[[2-hydroxy-2-(2-thiazolyl)ethyl]thio]-3-methoxypyrazinyl]-benzenesulfonamide], for which, in series [1], the IC50 is 398 nM.

`COc1nc(SC[C@H](N)C(=O)O)cnc1NS(=O)(=O)c1cccc(Cl)c1Cl` [Example 3, S-[5-[[(2,3-Dichlorophenyl)sulfonyl]amino]-6-methoxypyrazinyl]-L-cysteine] returned a melting point of 180 to 190 °C. As for `COc1nc(SC[C@H](N)C(N)=O)cnc1NS(=O)(=O)c1cccc(Cl)c1Cl` [Example 4, (2R)-2-Amino-3-[[5-[[(2,3-dichlorophenyl)sulfonyl]amino]-6-methoxypyrazinyl]thio]propanamide], the melting point is 148 to 152 °C. Moreover, the IC50 in series [1] was 631 nM. `CNC(=O)[C@@H](N)CSc1cnc(NS(=O)(=O)c2cccc(Cl)c2Cl)c(OC)n1` [Example 5, (2R)-2-Amino-3-[[5-[[(2,3-dichlorophenyl)sulfonyl]amino]-6-methoxypyrazinyl]thio]-N-methyl-propanamide] showed a melting point of 160 to 164 °C. The same measure, in the same setting: then `COc1nc(SCC(O)CO)cnc1NS(=O)(=O)c1cccc(Cl)c1Cl` (centres unmarked) [Example 19, 2,3-Dichloro-N-[5-[(2,3-dihydroxypropyl)thio]-3-methoxypyrazinyl]benzenesulfonamide], with 136 to 138 °C; and `COc1nc(SC[C@H](N)C(=O)N(C)C)cnc1NS(=O)(=O)c1cccc(Cl)c1Cl` [Example 6, (2R)-2-Amino-3-[[5-[[(2,3-dichlorophenyl)sulfonyl]amino]-6-methoxypyrazinyl]thio]-N,N-dimethylpropanamide], with 187 to 190 °C. The same measure, in the same setting: for `COC(=O)[C@@H](N)CSc1nc(OC)c(NS(=O)(=O)c2cccc(Cl)c2Cl)nc1C` the value was 164 to 168 °C; for `COc1nc(SC[C@H](N)C(=O)O)c(Cl)nc1NS(=O)(=O)c1cccc(Cl)c1Cl` [Example 9, S-[3-Chloro-5[[(2,3-dichlorophenyl)sulfonyl]amino]-6-methoxypyrazinyl]-L-cysteine], 170 to 173 °C. The same measure, in the same setting: then `COc1nc(SCC(O)c2ccncc2)cnc1NS(=O)(=O)c1cccc(Cl)c1Cl` (centres unmarked) [Example 23, 2,3-Dichloro-N-[5-[[2-hydroxy-2-(4-pyridinyl)ethyl]thio]-3-methoxypyrazinyl]benzenesulfonamide], with 176 to 177 °C. `CNC(=O)[C@@H](N)CSc1nc(OC)c(NS(=O)(=O)c2cccc(Cl)c2Cl)nc1C` [Example 29, (2R)-2-Amino-3-[[5[[(2,3-dichlorophenyl)sulfonyl]amino]methoxy-3-methylpyrazinyl]thio]-N-methylpropanamide]: the melting point is 68 to 80 °C. Same read-out and setting: for `COc1nc(SC[C@H](N)CO)c(Cl)nc1NS(=O)(=O)c1cccc(Cl)c1Cl` [Example 10, N-[5-[[(2R)-2-Amino-3-hydroxypropyl]thio]-6-chloro-3-methoxypyrazinyl]-2,3-dichlorobenzenesulfonamide] the value was 255 to 256 °C; for `COc1nc(SCC(N)c2cccnc2)cnc1NS(=O)(=O)c1cccc(Cl)c1Cl` (centres unmarked) [Example 22, N-[5-[[2-Amino-2-(3-pyridinyl)ethyl]thio]-3-methoxypyrazinyl]-2,3-dichloro benzenesulfonamide], 175 to 178 °C.
